Experimental data reported in US20250114456A1, “ENHANCED IMMUNOTHERAPEUTIC METHOD COMPRISING COMBINED ADMINISTRATION OF PHOTODYNAMIC / RADIOTHERAPEUTIC COMPOUNDS AND IMMUNOTHERAPEUTIC AGENTS” (Theralase Technologies, Inc., priority 2023, published 2025).

Assays:
[1] = system: VISTA and PDL1/L2; settings: multiple preclinical models; cited from earlier work
[2] = system: CD47 expression in A549 human Non-Small Cell Lung Cancer cells; experiment: CD47 expression by flow cytometry, A549 cells, with or without radiation; format: cell-based; settings: 4 hours, overnight incubation, FIG. 6
Experimental: A549 human Non-Small Cell Lung Cancer (“NSCLC”) cells were treated with RUVIDAR or RUTHERRIN for four (4) hours, then cells were treated with radiation or left untreated and then incubated further overnight before cell collection and analysis of CD47 expression by flow cytometry.

[3] = system: A549 human NSCLC cells; experiment: ATP secretion quantification in supernatant, A549 cells, with radiation; format: cell-based; settings: 4 hours, combined with radiation, supernatant 1 hour after, FIG. 8
Experimental: A549 human NSCLC cells were treated with RUVIDAR or RUTHERRIN for four (4) hours, then cells were treated with radiation or left untreated, and then incubated further for one (1) hour before collection of supernatant for ATP secretion quantification.

| Structure (SMILES) | anti-tumor activity [1] | CD47 expression ([2]; radiation treatment added) | CD47 expression ([2]; without radiation treatment) | ATP release [3] |
| --- | --- | --- | --- | --- |
| C[C@@H](O)[C@H](NC(=O)N[C@@H](CC(N)=O)c1nc([C@H](N)CO)no1)C(=O)O [CA-170] | demonstrated anti-tumor activity in multiple preclinical models |  |  |  |
| Cc1ccnc(-c2cc(C)ccn2)c1.Cc1ccnc(-c2cc(C)ccn2)c1.[Cl-].[Cl-].[Ru+2].c1csc(-c2ccc(-c3ccc(-c4nc5c6cccnc6c6ncccc6c5[nH]4)s3)s2)c1 [RUVIDAR, Ru(4,4′-dimethyl-2,2′-bipyridine)2(2-(2′,2″:5″,2′-terthiophene)-imidazo[4,5-f][1,10]phenanthroline) chloride] |  | significantly reduced expression | downregulated CD47 expression | significantly increased ATP release |
